# “And” between values parts separate entries of the source, which are not always exact repeats. Equal values may be shown once. Numbers after ± are expanded uncertainties.
# Test: molar heat capacity at constant pressure
# Conditions: 101.33 kPa, Crystal, Small (less than 1 g) adiabatic calorimetry
structure (smiles),measurement,setting,value
CC(C)(C)c1ccc(Oc2ccccc2)cc1 [4-tert-butylphenyl phenyl ether],molar heat capacity at constant pressure,5 K,0.671 ± 0.044 J/K/mol
same,molar heat capacity at constant pressure,7.93 K,2.627 ± 0.12 J/K/mol
same,molar heat capacity at constant pressure,8.1 K,2.719 ± 0.12 J/K/mol
same,molar heat capacity at constant pressure,8.28 K,3.035 ± 0.14 J/K/mol
same,molar heat capacity at constant pressure,8.43 K,3.06 ± 0.14 J/K/mol
same,molar heat capacity at constant pressure,8.59 K,3.268 ± 0.15 J/K/mol
same,molar heat capacity at constant pressure,8.75 K,3.459 ± 0.16 J/K/mol
same,molar heat capacity at constant pressure,8.9 K,3.675 ± 0.17 J/K/mol
same,molar heat capacity at constant pressure,9.05 K,3.725 ± 0.17 J/K/mol
same,molar heat capacity at constant pressure,9.2 K,3.958 ± 0.17 J/K/mol
same,molar heat capacity at constant pressure,9.49 K,4.365 ± 0.19 J/K/mol
same,molar heat capacity at constant pressure,9.63 K,4.573 ± 0.2 J/K/mol
same,molar heat capacity at constant pressure,9.78 K,4.881 ± 0.22 J/K/mol
same,molar heat capacity at constant pressure,9.92 K,5.097 ± 0.22 J/K/mol
same,molar heat capacity at constant pressure,10 K,4.906 ± 0.17 J/K/mol
same,molar heat capacity at constant pressure,10.28 K,5.488 ± 0.24 J/K/mol
same,molar heat capacity at constant pressure,10.56 K,5.961 ± 0.26 J/K/mol
same,molar heat capacity at constant pressure,10.85 K,6.419 ± 0.27 J/K/mol
same,molar heat capacity at constant pressure,11.15 K,6.884 ± 0.3 J/K/mol
same,molar heat capacity at constant pressure,12.02 K,8.298 ± 0.36 J/K/mol
same,molar heat capacity at constant pressure,12.32 K,8.896 ± 0.42 J/K/mol
same,molar heat capacity at constant pressure,12.61 K,9.395 ± 0.42 J/K/mol
same,molar heat capacity at constant pressure,12.91 K,9.977 ± 0.42 J/K/mol
same,molar heat capacity at constant pressure,13.21 K,10.48 ± 0.42 J/K/mol
same,molar heat capacity at constant pressure,13.51 K,11.06 ± 0.5 J/K/mol
same,molar heat capacity at constant pressure,13.81 K,11.64 ± 0.5 J/K/mol
same,molar heat capacity at constant pressure,14.11 K,12.22 ± 0.5 J/K/mol
same,molar heat capacity at constant pressure,14.41 K,12.72 ± 0.5 J/K/mol
same,molar heat capacity at constant pressure,14.71 K,13.3 ± 0.58 J/K/mol
same,molar heat capacity at constant pressure,15 K,13.89 ± 0.33 J/K/mol
same,molar heat capacity at constant pressure,15.02 K,13.97 ± 0.58 J/K/mol
same,molar heat capacity at constant pressure,15.32 K,14.55 ± 0.58 J/K/mol
same,molar heat capacity at constant pressure,15.63 K,15.05 ± 0.67 J/K/mol
same,molar heat capacity at constant pressure,15.94 K,15.71 ± 0.67 J/K/mol
same,molar heat capacity at constant pressure,16.25 K,16.3 ± 0.67 J/K/mol
same,molar heat capacity at constant pressure,16.56 K,16.96 ± 0.75 J/K/mol
same,molar heat capacity at constant pressure,16.87 K,17.63 ± 0.75 J/K/mol
same,molar heat capacity at constant pressure,17.18 K,18.13 ± 0.75 J/K/mol
same,molar heat capacity at constant pressure,17.49 K,18.96 ± 0.75 J/K/mol
same,molar heat capacity at constant pressure,17.8 K,19.54 ± 0.83 J/K/mol
same,molar heat capacity at constant pressure,18.12 K,20.12 ± 0.83 J/K/mol
same,molar heat capacity at constant pressure,18.43 K,20.79 ± 0.83 J/K/mol
same,molar heat capacity at constant pressure,18.74 K,21.29 ± 0.91 J/K/mol
same,molar heat capacity at constant pressure,19.06 K,21.95 ± 0.91 J/K/mol
same,molar heat capacity at constant pressure,19.37 K,22.7 ± 0.91 J/K/mol
same,molar heat capacity at constant pressure,19.68 K,23.36 ± 1 J/K/mol
same,molar heat capacity at constant pressure,20 K,23.95 ± 1 J/K/mol and 23.95 ± 0.58 J/K/mol
same,molar heat capacity at constant pressure,20.57 K,25.05 ± 0.42 J/K/mol
same,molar heat capacity at constant pressure,21.33 K,26.59 ± 0.44 J/K/mol
same,molar heat capacity at constant pressure,22.1 K,28.07 ± 0.47 J/K/mol
same,molar heat capacity at constant pressure,22.86 K,29.59 ± 0.48 J/K/mol
same,molar heat capacity at constant pressure,23.63 K,31.1 ± 0.51 J/K/mol
same,molar heat capacity at constant pressure,24.4 K,32.68 ± 0.53 J/K/mol
same,molar heat capacity at constant pressure,25 K,33.84 ± 0.75 J/K/mol
same,molar heat capacity at constant pressure,25.18 K,34.25 ± 0.55 J/K/mol
same,molar heat capacity at constant pressure,25.95 K,35.83 ± 0.57 J/K/mol
same,molar heat capacity at constant pressure,26.73 K,37.02 ± 0.58 J/K/mol
same,molar heat capacity at constant pressure,27.51 K,38.42 ± 0.6 J/K/mol
same,molar heat capacity at constant pressure,28.29 K,39.88 ± 0.62 J/K/mol
same,molar heat capacity at constant pressure,29.07 K,41.31 ± 0.64 J/K/mol
same,molar heat capacity at constant pressure,29.85 K,42.77 ± 0.66 J/K/mol
same,molar heat capacity at constant pressure,30 K,43.07 ± 0.83 J/K/mol
same,molar heat capacity at constant pressure,30.63 K,44.28 ± 0.67 J/K/mol
same,molar heat capacity at constant pressure,31.42 K,45.65 ± 0.68 J/K/mol
same,molar heat capacity at constant pressure,32.21 K,47 ± 0.71 J/K/mol
same,molar heat capacity at constant pressure,33 K,48.3 ± 0.72 J/K/mol
same,molar heat capacity at constant pressure,33.79 K,49.62 ± 0.74 J/K/mol
same,molar heat capacity at constant pressure,34.58 K,50.93 ± 0.76 J/K/mol
same,molar heat capacity at constant pressure,35 K,51.38 ± 0.58 J/K/mol
same,molar heat capacity at constant pressure,35.37 K,52 ± 0.77 J/K/mol
same,molar heat capacity at constant pressure,36.16 K,53.14 ± 0.79 J/K/mol
same,molar heat capacity at constant pressure,36.95 K,54.29 ± 0.81 J/K/mol
same,molar heat capacity at constant pressure,37.74 K,55.42 ± 0.82 J/K/mol
same,molar heat capacity at constant pressure,38.53 K,56.54 ± 0.84 J/K/mol
same,molar heat capacity at constant pressure,39.32 K,57.57 ± 0.86 J/K/mol
same,molar heat capacity at constant pressure,40 K,58.7 ± 0.67 J/K/mol
same,molar heat capacity at constant pressure,40.11 K,58.69 ± 0.55 J/K/mol
same,molar heat capacity at constant pressure,40.91 K,59.85 ± 0.56 J/K/mol
same,molar heat capacity at constant pressure,41.7 K,61.07 ± 0.57 J/K/mol
same,molar heat capacity at constant pressure,42.49 K,62.01 ± 0.57 J/K/mol
same,molar heat capacity at constant pressure,43.29 K,63.2 ± 0.59 J/K/mol
same,molar heat capacity at constant pressure,44.08 K,64.35 ± 0.6 J/K/mol
same,molar heat capacity at constant pressure,44.88 K,65.44 ± 0.61 J/K/mol
same,molar heat capacity at constant pressure,45 K,65.52 ± 0.42 J/K/mol
same,molar heat capacity at constant pressure,45.68 K,66.42 ± 0.62 J/K/mol
same,molar heat capacity at constant pressure,46.48 K,67.56 ± 0.62 J/K/mol
same,molar heat capacity at constant pressure,47.28 K,68.56 ± 0.63 J/K/mol
same,molar heat capacity at constant pressure,48.08 K,69.68 ± 0.64 J/K/mol
same,molar heat capacity at constant pressure,48.87 K,70.7 ± 0.65 J/K/mol
same,molar heat capacity at constant pressure,49.67 K,71.74 ± 0.67 J/K/mol
same,molar heat capacity at constant pressure,50 K,72.09 ± 0.5 J/K/mol
same,molar heat capacity at constant pressure,50.47 K,72.8 ± 0.67 J/K/mol
same,molar heat capacity at constant pressure,51.27 K,73.72 ± 0.68 J/K/mol
same,molar heat capacity at constant pressure,52.07 K,74.77 ± 0.69 J/K/mol
same,molar heat capacity at constant pressure,52.87 K,75.83 ± 0.7 J/K/mol
same,molar heat capacity at constant pressure,53.67 K,77.23 ± 0.71 J/K/mol
same,molar heat capacity at constant pressure,56.08 K,80.21 ± 0.73 J/K/mol
same,molar heat capacity at constant pressure,56.88 K,81.22 ± 0.74 J/K/mol
same,molar heat capacity at constant pressure,57.68 K,82.24 ± 0.75 J/K/mol
same,molar heat capacity at constant pressure,58.49 K,83.23 ± 0.75 J/K/mol
same,molar heat capacity at constant pressure,59.3 K,84.31 ± 0.75 J/K/mol
same,molar heat capacity at constant pressure,60 K,85.31 ± 0.58 J/K/mol
same,molar heat capacity at constant pressure,60.1 K,85.31 ± 0.75 J/K/mol
same,molar heat capacity at constant pressure,60.91 K,86.3 ± 0.75 J/K/mol
same,molar heat capacity at constant pressure,61.71 K,87.3 ± 0.83 J/K/mol
same,molar heat capacity at constant pressure,62.51 K,88.3 ± 0.83 J/K/mol
same,molar heat capacity at constant pressure,64.11 K,90.88 ± 0.83 J/K/mol
same,molar heat capacity at constant pressure,64.92 K,91.87 ± 0.83 J/K/mol
same,molar heat capacity at constant pressure,65.72 K,92.71 ± 0.83 J/K/mol
same,molar heat capacity at constant pressure,66.52 K,93.62 ± 0.83 J/K/mol
same,molar heat capacity at constant pressure,67.33 K,94.45 ± 0.83 J/K/mol
same,molar heat capacity at constant pressure,68.13 K,95.12 ± 0.83 J/K/mol
same,molar heat capacity at constant pressure,68.94 K,96.12 ± 0.91 J/K/mol
same,molar heat capacity at constant pressure,69.74 K,96.95 ± 0.91 J/K/mol
same,molar heat capacity at constant pressure,70 K,97.28 ± 0.5 J/K/mol
same,molar heat capacity at constant pressure,70.74 K,97.94 ± 0.91 J/K/mol
same,molar heat capacity at constant pressure,71.95 K,99.19 ± 0.91 J/K/mol
same,molar heat capacity at constant pressure,73.16 K,100.61 ± 0.91 J/K/mol
same,molar heat capacity at constant pressure,74.36 K,101.94 ± 0.91 J/K/mol
same,molar heat capacity at constant pressure,75.56 K,102.6 ± 0.91 J/K/mol
same,molar heat capacity at constant pressure,76.77 K,103.6 ± 0.91 J/K/mol
same,molar heat capacity at constant pressure,77.98 K,104.6 ± 0.91 J/K/mol
same,molar heat capacity at constant pressure,79.18 K,105.68 ± 1 J/K/mol
same,molar heat capacity at constant pressure,80 K,106.59 ± 0.58 J/K/mol
same,molar heat capacity at constant pressure,80.21 K,106.67 ± 0.58 J/K/mol
same,molar heat capacity at constant pressure,80.39 K,106.92 ± 0.58 J/K/mol
same,molar heat capacity at constant pressure,81.01 K,107.17 ± 0.67 J/K/mol
same,molar heat capacity at constant pressure,81.6 K,108.09 ± 0.67 J/K/mol
same,molar heat capacity at constant pressure,81.81 K,108.17 ± 0.67 J/K/mol
same,molar heat capacity at constant pressure,82.62 K,108.84 ± 0.67 J/K/mol
same,molar heat capacity at constant pressure,82.8 K,109.25 ± 0.67 J/K/mol
same,molar heat capacity at constant pressure,83.42 K,109.58 ± 0.67 J/K/mol
same,molar heat capacity at constant pressure,84.01 K,110.25 ± 0.67 J/K/mol
same,molar heat capacity at constant pressure,85.83 K,111.83 ± 0.67 J/K/mol
same,molar heat capacity at constant pressure,86.63 K,112.66 ± 0.67 J/K/mol
same,molar heat capacity at constant pressure,87.43 K,113.33 ± 0.67 J/K/mol
same,molar heat capacity at constant pressure,88.23 K,114.16 ± 0.67 J/K/mol
same,molar heat capacity at constant pressure,89.03 K,115.07 ± 0.67 J/K/mol
same,molar heat capacity at constant pressure,89.84 K,115.9 ± 0.67 J/K/mol
same,molar heat capacity at constant pressure,90 K,115.99 ± 0.58 J/K/mol
same,molar heat capacity at constant pressure,90.64 K,116.65 ± 0.67 J/K/mol
same,molar heat capacity at constant pressure,91.44 K,117.48 ± 0.67 J/K/mol
same,molar heat capacity at constant pressure,92.24 K,118.23 ± 0.67 J/K/mol
same,molar heat capacity at constant pressure,93.05 K,119.15 ± 0.67 J/K/mol
same,molar heat capacity at constant pressure,93.85 K,119.73 ± 0.67 J/K/mol
same,molar heat capacity at constant pressure,94.65 K,120.48 ± 0.67 J/K/mol
same,molar heat capacity at constant pressure,95.46 K,121.14 ± 0.67 J/K/mol
same,molar heat capacity at constant pressure,96.26 K,121.97 ± 0.67 J/K/mol
same,molar heat capacity at constant pressure,97.06 K,122.72 ± 0.67 J/K/mol
same,molar heat capacity at constant pressure,97.87 K,123.22 ± 0.67 J/K/mol
same,molar heat capacity at constant pressure,98.67 K,124.05 ± 0.67 J/K/mol
same,molar heat capacity at constant pressure,99.47 K,125.13 ± 0.75 J/K/mol
same,molar heat capacity at constant pressure,100 K,125.71 ± 0.58 J/K/mol
same,molar heat capacity at constant pressure,100.28 K,125.8 ± 0.75 J/K/mol
same,molar heat capacity at constant pressure,101.28 K,127.13 ± 0.75 J/K/mol
same,molar heat capacity at constant pressure,102.48 K,128.13 ± 0.75 J/K/mol
same,molar heat capacity at constant pressure,103.69 K,129.21 ± 0.75 J/K/mol
same,molar heat capacity at constant pressure,104.89 K,130.45 ± 0.75 J/K/mol
same,molar heat capacity at constant pressure,106.1 K,131.45 ± 0.75 J/K/mol
same,molar heat capacity at constant pressure,107.32 K,132.78 ± 0.75 J/K/mol
same,molar heat capacity at constant pressure,108.53 K,133.86 ± 0.75 J/K/mol
same,molar heat capacity at constant pressure,109.74 K,134.86 ± 0.75 J/K/mol
same,molar heat capacity at constant pressure,110 K,135.19 ± 0.67 J/K/mol
same,molar heat capacity at constant pressure,110.96 K,136.11 ± 0.75 J/K/mol
same,molar heat capacity at constant pressure,112.17 K,137.19 ± 0.75 J/K/mol
same,molar heat capacity at constant pressure,113.39 K,138.27 ± 0.75 J/K/mol
same,molar heat capacity at constant pressure,114.61 K,139.43 ± 0.75 J/K/mol
same,molar heat capacity at constant pressure,115.83 K,140.51 ± 0.75 J/K/mol
same,molar heat capacity at constant pressure,117.05 K,141.6 ± 0.75 J/K/mol
same,molar heat capacity at constant pressure,118.28 K,142.59 ± 0.83 J/K/mol
same,molar heat capacity at constant pressure,119.5 K,143.76 ± 0.83 J/K/mol

# From the NIST ThermoML archive (doi:10.1016/j.jct.2015.03.019)
